PubChem BioAssay (NCI)
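Cultured in 96-well plates, cells were exposed to test compound for 48 hours across five concentrations. GI50 marks 50% less growth. TGI: total growth inhibition.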

Assays:
Assay in all cases: DTP human tumour cell line panel, 48 h
786-0 renal = tested on: 786-0 renal
A498 renal = tested on: A498 renal
A549 NSCLC = tested on: A549 NSCLC
ACHN renal = tested on: ACHN renal
BT-549 breast = tested on: BT-549 breast
CAKI-1 renal = tested on: CAKI-1 renal
CCRF-CEM leukemia = tested on: CCRF-CEM leukemia
COLO 205 colon = tested on: COLO 205 colon
DU-145 prostate = tested on: DU-145 prostate
EKVX NSCLC = tested on: EKVX NSCLC
HCC-2998 colon = tested on: HCC-2998 colon
HCT-116 colon = tested on: HCT-116 colon
HCT-15 colon = tested on: HCT-15 colon
HL-60(TB) leukemia = tested on: HL-60(TB) leukemia
HOP-62 NSCLC = tested on: HOP-62 NSCLC
HOP-92 NSCLC = tested on: HOP-92 NSCLC
HS 578T breast = tested on: HS 578T breast
HT29 colon = tested on: HT29 colon
IGROV1 ovarian = tested on: IGROV1 ovarian
K-562 leukemia = tested on: K-562 leukemia
KM12 colon = tested on: KM12 colon
LOX IMVI melanoma = tested on: LOX IMVI melanoma
M14 melanoma = tested on: M14 melanoma
MALME-3M melanoma = tested on: MALME-3M melanoma
MCF7 breast = tested on: MCF7 breast
MDA-MB-231 breast = tested on: MDA-MB-231 breast
MDA-MB-435 = tested on: MDA-MB-435
MDA-MB-468 breast = tested on: MDA-MB-468 breast
MOLT-4 leukemia = tested on: MOLT-4 leukemia
NCI-H226 lung = tested on: NCI-H226 lung

COc1ccc(C(=O)COc2ccc(NC(=O)Nc3ccc(Cl)c(C(F)(F)F)c3)cc2)cc1
GI50 (786-0 renal): 4.57 µM | TGI (786-0 renal): 24.5 µM | GI50 (A498 renal): 2.74 µM | TGI (A498 renal): 9.86 µM | GI50 (A549 NSCLC): 3.2 µM | TGI (A549 NSCLC): > 100 µM | GI50 (ACHN renal): 3.35 µM | TGI (ACHN renal): > 100 µM | GI50 (BT-549 breast): 4.38 µM | TGI (BT-549 breast): 40.8 µM | GI50 (CAKI-1 renal): 4.36 µM | TGI (CAKI-1 renal): > 100 µM | GI50 (CCRF-CEM leukemia): 3.71 µM | TGI (CCRF-CEM leukemia): > 100 µM | GI50 (COLO 205 colon): 3.08 µM | TGI (COLO 205 colon): > 100 µM | GI50 (DU-145 prostate): 5.78 µM | TGI (DU-145 prostate): > 100 µM | GI50 (EKVX NSCLC): 3.15 µM | TGI (EKVX NSCLC): 16.6 µM | GI50 (HCC-2998 colon): 3.8 µM | TGI (HCC-2998 colon): 34.2 µM | GI50 (HCT-116 colon): 3.87 µM | TGI (HCT-116 colon): > 100 µM | GI50 (HCT-15 colon): 3.09 µM | TGI (HCT-15 colon): > 100 µM | GI50 (HL-60(TB) leukemia): 3.09 µM | TGI (HL-60(TB) leukemia): 22.7 µM | GI50 (HOP-62 NSCLC): 6.69 µM | TGI (HOP-62 NSCLC): 96.4 µM | GI50 (HOP-92 NSCLC): 3.08 µM | TGI (HOP-92 NSCLC): 10 µM | GI50 (HS 578T breast): 2.89 µM | TGI (HS 578T breast): 9.97 µM | GI50 (HT29 colon): 4.49 µM | TGI (HT29 colon): > 100 µM | GI50 (IGROV1 ovarian): 6 µM | TGI (IGROV1 ovarian): > 100 µM | GI50 (K-562 leukemia): 4.92 µM | TGI (K-562 leukemia): > 100 µM | GI50 (KM12 colon): 2.88 µM | TGI (KM12 colon): 8.71 µM | GI50 (LOX IMVI melanoma): 3.2 µM | TGI (LOX IMVI melanoma): > 100 µM | GI50 (M14 melanoma): 2.72 µM | TGI (M14 melanoma): > 100 µM | GI50 (MALME-3M melanoma): 2.84 µM | TGI (MALME-3M melanoma): 18.2 µM | GI50 (MCF7 breast): 2.6 µM | TGI (MCF7 breast): > 100 µM | GI50 (MDA-MB-231 breast): 3.81 µM | TGI (MDA-MB-231 breast): 26.1 µM | GI50 (MDA-MB-435): 3.63 µM | TGI (MDA-MB-435): > 100 µM | GI50 (MDA-MB-468 breast): 2.8 µM | TGI (MDA-MB-468 breast): 8.67 µM | GI50 (MOLT-4 leukemia): 2.84 µM | TGI (MOLT-4 leukemia): > 100 µM | GI50 (NCI-H226 lung): 3.61 µM
